Data reported in patent publication US8877946B2, “Benzylidene-indolinone compounds and their medical use” (National University of Singapore, priority 2011, dated 2014).
In brackets after ≈: the same amount, converted by molar mass. Like-named read-outs stand apart in the source and are kept apart here.

Tests used:
[1] = tested on: CYP1A1; test: EROD assay, induction of CYP1A1 activity in HuH7 cells; type: cell-based, human; conditions: for induction of CYP450 (CYP1A1, EROD) activity: broad range of concentrations spanning growth inhibitory concentrations, FIG. 2
Text: The induction of CYP1A1 activity was monitored by the 7-ethoxyresorufin O-deethylase (EROD) assay. EROD is a CYP1A1 enzyme and induction of its activity would result in the formation of more resorufin, a fluorescent compound. By monitoring resorufin levels in cells that are exposed to test compound and comparing the levels with those in untreated cells, it is possible to identify compounds that induce EROD activity.
Readings were taken at λexcitation of 530 nm and λemission of 590 nm on a fluorometer (Name the plate reader). Background fluorescence of the test compound was determined at the same wavelengths to take into account its contribution to the observed readings. Readings of “blank” wells that contained only media and “control” wells with only HuH7 cells in media (with 1% DMSO) were also determined. β-napthoflavone (BNF), a known inducer of CYP1A1 activity (give ref) was used as a positive control. The extent to which EROD activity was induced is given by the expression: Degree of induction=(FCells+Test Compound−FBlank)/(FControl−FBlank)
Where Fcells+test compound=fluorescence of wells containing treated cells; FBlank=fluorescence of well containing media only; FControl=fluorescence readings of wells containing untreated cells. The test compounds were not fluorescent at the excitation and emission wavelengths used in this assay. Two separate determinations were made for each concentration of test compound.

[2] = PAMPA permeability (Pe); type: physicochemical; conditions: 1% lecithin in dodecane, mean of 3 determinations
Description: (§1) Solubility and PAMPA permeability (Pe) are important physicochemical indicators of drug-like character. Determination of aqueous solubility was carried out on Multiscreen® Solubility filter plates (Millipore-MSSLBPC10) from Millipore Corporation (MA, USA). The protocol (PC2445EN00, Millipore Corporation) was followed. Pe determinations were carried out on MultiScreen-IP PAMPA assay (donor) plates (MAIPNTR10) and MultiScreen Receiver Plates (MATRNPS50) from Millipore Corporation (USA) with 1% lecithin (L-α-phosphatidylcholine from lyophilized powder of egg yolk, Sigma Aldrich, USA) in dodecane (ReagentPlus®, Sigma Aldrich, USA) as lipid barrier.

[3] = tested on: Hep G2; test: MTT antiproliferative assay on Hep G2 cells; type: cell-based; conditions: Homo sapiens, HepG2, 72 h
Text: (§2) MTT was purchased from DUCHEFA Biochemie ([…]). Sunitinib, and sodium dodecyl sulfate, bovine serum albuminwere obtained from Sigma Aldrich (Singapore). Sorafenib was purchase from Ontario Chem. Fetal bovine serum (FBS) was obtained from Invitrogen. Human hepatocellular carcinoma cells (HuH-7 and Hep G2), and human diploid fibroblast strain (IMR 90). HuH7 was obtained as gifts from Dr Ho Han Kiat, Department of Pharmacy, NUS. IMR90 and Hep G2 were purchased from American Type Culture Collection (ATCC). HuH-7 cells were cultured in DMEM (Dulbecco's Modified Eagle Medium, high glucose) with 10% v/v fetal bovine serum (FBS), 100 mg/L penicillin G and 100 mg/L streptomycin. IMR 90 cell were cultured in EMEM (Eagle's Minimum Essential Medium), with 10% v/v FBS and 100 mg/L penicillin G and 100 mg/L streptomycin. The cells were sub-cultured when HuH7 or Hep G2 reached a density of 70-80×10^5 cell/T75 flask, and IMR 90 reached 20×10^5 cell/T75 flask. Cells were used within 2-10 passages for viability experiments.
(§3) The anti-proliferative activity of the test compounds were determined by the MTT assay. An aliquot (200 μL, 3×10^4 cells/mL for HuH7, 3.75×10^4 cells/mL for Hep G2, and 2×10^4 cells/mL for IMR 90) of medium was added to each well of the microtitre plate. […] The existing medium was removed from each well and replaced by fresh medium (200 μL) containing a known concentration of test compound. The final concentration of DMSO in each well was maintained at 0.5% v/v. (1% v/v was also utilized if the compounds were not soluble) The test compounds were incubated with the cells for another 72 h at 37 deg C., 5% CO2. The medium was then removed from the well and replaced with FBS free medium (200 μL) and MTT (50 μL of 2 mg/mL solution in phosphate buffer saline, pH 7.4). The phosphate buffer saline comprises 10 mM of potassium phosphate and 137 mM sodium chloride. After incubation (3 h) at 37 deg C., 5% CO2, the supernatant was removed and a solution of 200 μL DMSO and 25 μL Sorenson buffer (0.1 M glycine, 0.1 M sodium chloride, adjusted to pH 10.5 with 0.1 M sodium hydroxide) was added to dissolve the formazan crystals in each well. Vehicle control were cells grown in 1% v/v DMSO/Medium for 72 h, 37 deg C., 5% CO2 while blank controls were wells that contained only 200 μL DMSO and 25 μL Sorenson buffer. Absorbances were measured at 570 nm on a microplate reader (Tecan, Infinite 200). The viability of cells at a given concentration of test compound was determined from the expression:
(§4) [formula] where abs_compound=absorbance of wells containing cells and test compound, abs_vehicle (Not the same as above. Change to abs_vehicle)=absorbance of vehicle control and abs_blank=absorbance of blank control.
(§5) Each concentration of test compound was evaluated at least 3 times on separate occasions, and two different stock solution were used. The IC50 value (concentration that inhibited 50% of cell growth) was determined from the sigmoidal curve obtained by plotting percentage viability versus logarithmic concentration of test compound using GraphPad Prism 5 (San Diego, USA).

[4] = Aqueous solubility on Multiscreen Solubility filter plates; type: physicochemical; conditions: aqueous solution on Multiscreen Solubility filter plates, aqueous buffer, kinetic from dmso stock, mean of 3 determinations
Description: as §1

[5] = tested on: HuH7 cells; test: MTT antiproliferative (growth inhibition) assay on HuH7 cells; type: cell-based, human; conditions: Homo sapiens, Huh-7, MTT
How it was run: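 Cells were exposed to compound for 72 h at 37° C, 5% CO2, with 0.5% v/v DMSO (1% if poorly soluble), then given MTT for 3 h. Formazan was dissolved in DMSO/Sorenson buffer and absorbance read at 570 nm; IC50 from sigmoidal fits of % viability versus log concentration.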

[6] = tested on: phospho-STAT3 (Tyr 705); test: Detection of phosphorylated STAT3 by immunoblot in HepG2; type: cell-based, human; conditions: FIG. 3
Description: Rabbit polyclonal antibodies to STAT3 was obtained from Santa Cruz Biotechnology (Santa Cruz, Calif.), and rabbit monoclonal antibodies against phospho-STAT3 (Tyr 705) were purchased from Cell Signaling Technology (Beverly, Mass.).
For detection of phopho-STAT 3 and STAT 3, treated whole-cell extracts were lysed in lysis buffer (20 mM Tris (pH 7.4), 250 mM NaCl, 2 mM EDTA (pH 8.0), 0.1% Triton X-100, 0.01 mg/ml aprotinin, 0.005 mg/ml leupeptin, 0.4 mM PMSF, and 4 mM NaVO4). Lysates were then spun at 14,000 rpm for 10 min to remove insoluble material and resolved on a 7.5% SDS gel. After electrophoresis, the proteins were electrotransferred to a nitrocellulose membrane, blocked with 5% nonfat milk, and probed with anti-phospho-STAT 3 and anti-STAT 3 antibodies (1:1,000) overnight at 4° C. The blot was washed, exposed to HRP-conjugated secondary antibodies for 1 hr, and finally examined by chemiluminescence (ECL; GE Healthcare, Little Chalfont, Buckinghamshire, UK).

[7] = tested on: AFP mRNA; test: Determination of AFP mRNA levels by quantitative real-time PCR in HuH7 cells; type: cell-based, human; conditions: 10 μM, 24 h, FIG. 1
Text: The primer sequences were: […] reverse); [NT] (Human GADPH forward); [NT] (Human GADPH reverse).

[8] = tested on: IMR 90; test: MTT antiproliferative assay on non-malignant IMR 90 fibroblasts; type: cell-based; conditions: non-malignant human lung fibroblast IMR 90, MTT, 72 h
Text: as §2, §3, §4, §5

[9] = 72 h (Table 9), read-out: IC50 (μM) HuH7
[10] = 72 h incubation, mean and SD of 3 or more independent determinations (Tables 1-8), read-out: IC 50

Structure (SMILES)	induction of CYP450 (CYP1A1, EROD) activity [1]	Pe (×10^−6 cm/s) ([2]; pH 7.4, 6 h)	Pe (×10^−6 cm/s) ([2]; pH 7.4, 16 h)	IC50 [3]	solubility at 3 h ([4]; pH 7.4, agitation time 3 h)	solubility at 24 h ([4]; pH 7.4, agitation time 24 h)	IC50 [5, 9]	IC50 [5, 10]	effect on p-STAT3 levels (constitutive STAT3 activation) [6]	effect on AFP mRNA levels [7]	IC50 [8]	induction of EROD activity at 0.05 μM ([1]; 0.05 μM, declined at higher concentrations)
CNS(=O)(=O)c1cccc(/C=C2/C(=O)Nc3cc(Cl)ccc32)c1 [Compound 1-18, (E)-3-(6-Chloro-2-oxo-1,2-dihydro-indol-3-ylidenemethyl)-N-methyl-benzenesulfonamide]	did not induce CYP450 activity	18.3 ×10^−6 cm/s	12.3 ×10^−6 cm/s	3.99 ± 0.43 µM	8.85 µM (≈ 3.09 µg/mL)	2.28 µM (≈ 0.795 µg/mL)	0.54 ± 0.06 µM	0.54 ± 0.06 µM	reduced p-STAT3 levels	no significant change in AFP mRNA levels	2.1 µM	
CN1C(=O)/C(=C/c2cccc(C(F)(F)F)c2)c2ccc(Cl)cc21 [Compound 1-10, (E) 6-Chloro-1-methyl-3-(3-trifluoromethyl-benzylidene)-1,3-dihydro-indol-2-one, reference compound]	did not induce CYP450 activity			0.94 ± 0.18 µM			0.46 ± 0.06 µM	0.46 ± 0.06 µM	did not	reduced AFP mRNA by almost half	9.23 ± 0.88 µM	unusual (but reproducible) induction
O=C1Nc2ccc(F)c(F)c2/C1=C/c1cccc(C(F)(F)F)c1 [Compound 6-6, (Z)-4,5-Difluoro-3-(3-trifluoromethyl-benzylidene)-1,3-dihydro-indol-2-one]	did not induce CYP450 activity			0.96 ± 0.11 µM			0.54 ± 0.07 µM	0.54 ± 0.07 µM	did not	reduced levels to almost the same extent as 1-10	8.1 ± 0.73 µM	
